Source: patent US4542210A, “1-β-D-Arabinofuranosyl-(E)-5-(2-halogenovinyl)-uracil-5'-phosphate, preparation thereof and use thereof” (Yamasa Shoyu Kabushiki Kaisha, priority 1981, dated 1985)
In brackets after ≈: the same amount, converted by molar mass. Where a name gives a salt, the structure may show the parent alone. Read-outs that look alike come from different tables or passages of the source.

Key:
[1] = system: RE strain of HSV (type 1); test: Ulcerative herpetic keratitis in pigmented rabbits, ointment treatment; assay type: in vivo, RE strain; pigmented rabbits; set-up: Effect (lesion inhibition): unit not given here; conditions: for Effect (lesion inhibition): control 0; for % score: control 100
Protocol: (1) Pigmented rabbits, weighing between 2.0 and 3.0 kg, were anesthetised with intravenous pentobarbital sodium (30 mg/kg) and given a retrobulbar injection of 0.5 ml of 1% procaine. For inoculation a suspension of the RE strain of HSV (type 1) was drawn into a fine glass capillary tube (British Journal of Ophthalmology, Vol. 63, No. 6, 425-428 (1979).
After inoculation the eye was left open for 30 seconds and then the lids were closed with cellophane tape. The same procedure was repeated on the other eye. In one group of 3 rabbits the right eyes were treated with 1% BVAUP ointment and the left eyes with 1% BVAU ointment, or vice versa. In another group 3 eyes received no treatment as controls. The treatment was started 48 hours after inoculation and continued every 2 hours during the daytime 5 times a day for 4 days. The eyes were examined 48 hours after inoculation and then every 24 hours with a photo-slit lamp after applying 1% Bengal rose. Each inoculation site was scored according to the extent of the circumference infected.
The total daily score for each eye was calculated and expressed as a percentage of the score (percentage score) immediately before treatment. The therapeutic efficacies of BVAUP and BVAU against ulcerative herpetic keratitis were compared by calculating their average percentage scores.
(2) 0.3% BVAUP ointment and 3% BVAUP ointment were respectively prepared, and were subjected to the similar pharmacological test as shown in (1).

HSV-1-VR-3 = test: Antiviral activity in human embryonic lung fibroblasts (method of Sidwell et al), HSV-1-VR-3; assay type: cell-based, herpes simplex virus type 1 strain VR3; set-up: MIC: minimum inhibitory concentration at which HSV induced cytopathogenic effects were depressed more than 50%: unit not given here
Protocol: (§1) According to the method of Sidwell et al (Applied Microbiology, 22, (5), 797 (1971)), with the use of human embryonic lung fibroblasts, the antiviral activities of BVAUP and CVAUP were tested, with BVAU, CVAU and 5-iodo-2'-deoxyuridine (IDU) as controls.
(§2) effects were depressed more than 50%;
^1 HSV1-VR-3: herpes simplex virus type 1 strain VR3

HSV-2-MS = test: Antiviral activity in human embryonic lung fibroblasts (method of Sidwell et al), HSV-2-MS; assay type: cell-based, herpes simplex virus type 2 strain MS; set-up: MIC: minimum inhibitory concentration at which HSV induced cytopathogenic effects were depressed more than 50%: unit not given here
Protocol: as §1, §2
^2 HSV2-MS: herpes simplex virus type 2 strain MS

Solubility in water = assay type: physicochemical
type 2 herpes (HSV-2) = test: Antiviral activity against HSV-2 compared with HSV-1 or VZV (general statement)
[2] = Acute toxicity (LD50) in mice; conditions: mouse, in vivo
[3] = 1% ointment, 5 times a day for 4 days
[4] = 1% ointment, 5 times a day for 4 days, control 97.0

## O=c1[nH]c(=O)n([C@@H]2O[C@H](CO)[C@@H](O)[C@@H]2O)cc1/C=C/Br [BVAU, 1-β-D-arabinofuranosyl-(E)-5-(2-bromovinyl)uracil, reference compound]
[1]; [3]
  Effect (lesion inhibition): 43.0
  % score: 57.0%
[1]; [4]
  Total score per eye: 55.3
HSV-1-VR-3
  MIC: minimum inhibitory concentration at which HSV induced cytopathogenic effects were depressed more than 50%: 0.032
  VR: virus rating: 3.7
HSV-2-MS
  MIC: minimum inhibitory concentration at which HSV induced cytopathogenic effects were depressed more than 50%: 32
  VR: virus rating: 1.1
Solubility in water
  solubility: 4 mg/mL (≈ 11.5 mM)

## O=c1[nH]c(=O)n([C@@H]2O[C@H](COP(=O)(O)O)[C@@H](O)[C@@H]2O)cc1/C=C/Br [BVAUP, 1-β-D-arabinofuranosyl-(E)-5-(2-bromovinyl)uracil-5'-phosphate]
[1]; 0.3% ointment
  Effect (lesion inhibition): 38.3
  % score: 61.7%
[1]; 0.3% ointment, control 88.7
  Total score per eye: 54.7
[1]; [3]
  Effect (lesion inhibition): 53.9
  % score: 46.1%
[1]; [4]
  Total score per eye: 44.7
[1]; 3% ointment
  Effect (lesion inhibition): 71.9
  % score: 28.1%
[1]; 3% ointment, control 114.0
  Total score per eye: 32.0
Type 2 herpes (HSV-2)
  antiviral activity against HSV-2: lower than that against the type 1 herpes (HSV-1) or VZV
HSV-1-VR-3
  MIC: minimum inhibitory concentration at which HSV induced cytopathogenic effects were depressed more than 50%: 0.032
  VR: virus rating: 3.8
HSV-2-MS
  MIC: minimum inhibitory concentration at which HSV induced cytopathogenic effects were depressed more than 50%: 32
  VR: virus rating: 1.1
[2]; ip, intraperitoneally, read-out: LD50, intraperitoneal
  LD50: 1730 mg/kg
[2]; iv, intravenously, read-out: LD50, intravenous
  LD50: 1610 mg/kg

## O=c1[nH]c(=O)n([C@@H]2O[C@H](CO)[C@@H](O)[C@@H]2O)cc1/C=C/Cl [CVAU, 1-β-D-arabinofuranosyl-(E)-5-(2-chlorovinyl)uracil]
HSV-1-VR-3
  MIC: minimum inhibitory concentration at which HSV induced cytopathogenic effects were depressed more than 50%: 0.032
  VR: virus rating: 3.7
HSV-2-MS
  MIC: minimum inhibitory concentration at which HSV induced cytopathogenic effects were depressed more than 50%: 100
  VR: virus rating: 0.7

## O=c1[nH]c(=O)n([C@@H]2O[C@H](COP(=O)(O)O)[C@@H](O)[C@@H]2O)cc1/C=C/Cl [CVAUP, 1-β-D-arabinofuranosyl-(E)-5-(2-chlorovinyl)uracil-5'-phosphate]
HSV-1-VR-3
  MIC: minimum inhibitory concentration at which HSV induced cytopathogenic effects were depressed more than 50%: 0.032
  VR: virus rating: 3.7
HSV-2-MS
  MIC: minimum inhibitory concentration at which HSV induced cytopathogenic effects were depressed more than 50%: 320
  VR: virus rating: 0.5

## O=c1[nH]c(=O)n([C@H]2C[C@H](O)[C@@H](CO)O2)cc1I [IDU, 5-iodo-2'-deoxyuridine]
HSV-1-VR-3
  MIC: minimum inhibitory concentration at which HSV induced cytopathogenic effects were depressed more than 50%: 3.2
  VR: virus rating: 2.4
HSV-2-MS
  MIC: minimum inhibitory concentration at which HSV induced cytopathogenic effects were depressed more than 50%: 3.2
  VR: virus rating: 2.2

## O=c1[nH]c(=O)n([C@@H]2O[C@H](COP(=O)(O)O)[C@@H](O)[C@@H]2O)cc1/C=C/Br [disodium salt of 1-β-D-arabinofuranosyl-(E)-5-(2-bromovinyl)uracil-5'-phosphate]
Solubility in water
  solubility: ~500 mg/mL
